From ChEMBL document CHEMBL1201862, “PubChem BioAssay data set” (2004) come the findings set out here.

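In this assay, cells in 96-well plates receive the compound at five concentrations for 48 hours. Endpoints are linearly interpolated between the surrounding concentrations. The concentration for 50% growth inhibition is given as GI50.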 Active and inactive are the calls of the source. Rule as the data show it: active = GI50 up to about 1.1 µM and inactive = higher.

Test systems include 786-0; ACHN; EKVX; HCC 2998; HOP-62; HT-29; K562; MCF7; MOLT-4; NCI/ADR-RES; OVCAR-3; OVCAR-8; PC-3; RPMI-8226; RXF 393; SF-539; SK-MEL-2; UACC-62; OVCAR-4.
What all share (experiment): DTP human tumour cell line panel, 48 h

Broadly, the GI50 is the concentration at which growth is held to half of that of the control. On to `O=C1N[C@@H]2c3c(csc3Br)C(=O)[C@@H]2O1`, for which the GI50 in the assay with 786-0 was 33.2 µM (inactive); in the assay on ACHN it was 37.2 µM (inactive); in the assay with EKVX it was 30.4 µM (inactive); in the assay on HCC 2998, 17.9 µM (inactive); with HOP-62, 53.2 µM (inactive); in the assay on HT-29, 38.5 µM (inactive). Further, the GI50 is 21.5 µM (inactive) with K562; 32.6 µM (inactive) in the assay with MCF7; 19.9 µM (inactive) with MOLT-4; 96.4 µM (inactive) in the assay with NCI/ADR-RES; 20.7 µM (inactive) with OVCAR-3; 22.2 µM (inactive) in the assay with OVCAR-8. Besides, the GI50 is 41.6 µM (inactive) with PC-3; 26.9 µM (inactive) in the assay with RPMI-8226; 15.5 µM (inactive) in the assay on RXF 393; 33.5 µM (inactive) with SF-539; 46.5 µM (inactive) with SK-MEL-2; 34.1 µM (inactive) in the assay with UACC-62.
As to `O=C(Nc1ccccc1C(=O)O)C(=Cc1ccccc1O)NC(=O)c1ccccc1`, the GI50 in the assay on 786-0, in the assay on ACHN, with EKVX, in the assay on HCC 2998, in the assay on HOP-62 and in the assay with HT-29 was > 100 µM (inactive) each time. In addition, the GI50 in the assay on K562 was > 100 µM (inactive); in the assay on MCF7, 9.27 µM (inactive); in the assay with MOLT-4, > 100 µM (inactive); with NCI/ADR-RES it was > 100 µM (inactive); in the assay on OVCAR-3 it was > 100 µM (inactive); in the assay on OVCAR-8, > 100 µM (inactive). Further, the GI50 is > 100 µM (inactive) in the assay on PC-3; > 100 µM (inactive) in the assay on RPMI-8226; > 100 µM (inactive) in the assay on RXF 393; 58.6 µM (inactive) with SF-539; > 100 µM (inactive) in the assay with SK-MEL-2; > 100 µM (inactive) in the assay with UACC-62.
Consider `Cc1cc(S(=O)(=O)NC2=Nc3cccc(F)c3CN2)c(S)cc1Cl`, for which the GI50 with 786-0 was 47.5 µM (inactive); in the assay on ACHN it was 66.4 µM (inactive); in the assay with EKVX, 75 µM (inactive); in the assay on HCC 2998, > 100 µM (inactive); in the assay with MCF7, 61.7 µM (inactive); with MOLT-4, 49.3 µM (inactive). For the same molecule, the GI50 is 49.4 µM (inactive) in the assay with NCI/ADR-RES; 63 µM (inactive) in the assay with OVCAR-3; 68.1 µM (inactive) in the assay on OVCAR-4; 61 µM (inactive) in the assay on OVCAR-8; 56.2 µM (inactive) in the assay on PC-3; 24.8 µM (inactive) in the assay with RPMI-8226. Moreover, the GI50 with RXF 393 was > 100 µM (inactive); in the assay with SF-539, 84.1 µM (inactive); in the assay with SK-MEL-2, 35.6 µM (inactive); with UACC-62, 62.1 µM (inactive).
For the molecule `COc1ccc(-c2c(C#N)c(S)n(NS(=O)(=O)c3ccccc3)c(=O)c2C#N)cc1`, the GI50 in the assay with 786-0 was 35.2 µM (inactive); in the assay on ACHN, 55.7 µM (inactive); in the assay on HCC 2998, > 100 µM (inactive); with HOP-62, > 100 µM (inactive); in the assay on HT-29, 45.6 µM (inactive); in the assay with K562 it was 42.5 µM (inactive). In addition, the GI50 in the assay on MCF7 was 59.6 µM (inactive); with MOLT-4, 53.2 µM (inactive); with NCI/ADR-RES it was 70.5 µM (inactive); with OVCAR-3 it was 87.9 µM (inactive); with OVCAR-4, 46.6 µM (inactive); with OVCAR-8, 48.8 µM (inactive). For the same molecule, the GI50 in the assay on PC-3 is 37.7 µM (inactive); in the assay on RPMI-8226, 42.8 µM (inactive); in the assay on RXF 393 it was 37.8 µM (inactive); in the assay on SF-539, 24.5 µM (inactive); in the assay on SK-MEL-2, 47 µM (inactive); with UACC-62 it was 34.5 µM (inactive).
Regarding `Nc1ccc(/C=C/c2ccc3cccnc3c2)cc1`, the GI50 is > 100 µM (inactive) in the assay on 786-0; 52.5 µM (inactive) in the assay with ACHN; > 100 µM (inactive) in the assay on EKVX; > 100 µM (inactive) in the assay with HCC 2998; > 100 µM (inactive) in the assay with HOP-62; > 100 µM (inactive) with HT-29. Further, the GI50 in the assay with K562 was > 100 µM (inactive); in the assay with MCF7, 5.81 µM (inactive); in the assay with MOLT-4, > 100 µM (inactive); in the assay with NCI/ADR-RES, > 100 µM (inactive); in the assay with OVCAR-3, > 100 µM (inactive); in the assay on OVCAR-8, > 100 µM (inactive). The GI50 with PC-3 is > 100 µM (inactive); with RPMI-8226, 2.26 µM (inactive); in the assay on RXF 393 it was > 100 µM (inactive); with SF-539, > 100 µM (inactive); with UACC-62, > 100 µM (inactive).
On to `CCOC(=O)c1ccc2c(c1)nc1n2C(c2c(F)cccc2F)SC1` (stereo unspecified), for which the GI50 is 23.4 µM (inactive) in the assay on 786-0; 18.3 µM (inactive) with ACHN; 35.8 µM (inactive) with HCC 2998; 31.9 µM (inactive) with HOP-62; 19 µM (inactive) in the assay with HT-29; 29.1 µM (inactive) in the assay on K562. The GI50 in the assay with MCF7 was 19.9 µM (inactive); in the assay with MOLT-4 it was 26.8 µM (inactive); in the assay on NCI/ADR-RES it was 18.8 µM (inactive); in the assay on OVCAR-3, 17.8 µM (inactive); in the assay on OVCAR-4, 46.6 µM (inactive); in the assay on OVCAR-8, 21.6 µM (inactive). The GI50 in the assay with PC-3 is 21.3 µM (inactive); with RPMI-8226, 21.8 µM (inactive); with RXF 393, 51.6 µM (inactive); with SF-539, 21.4 µM (inactive); with SK-MEL-2 it was 15.2 µM (inactive); in the assay on UACC-62, 25.4 µM (inactive).
As to `[O-][S+](c1ccc(Cl)cc1)c1ccccc1C1=NCCN1` (stereo unspecified), the GI50 with 786-0, with ACHN, in the assay on EKVX, in the assay with HCC 2998, with HOP-62 and with HT-29 was > 100 µM (inactive) throughout. Besides, the GI50 in the assay with K562, in the assay on MCF7, in the assay on MOLT-4, with NCI/ADR-RES, in the assay with OVCAR-3 and in the assay on OVCAR-4 was > 100 µM (inactive) in each case. The GI50 in the assay with OVCAR-8, in the assay on PC-3, in the assay with RPMI-8226, in the assay on RXF 393, with SK-MEL-2 and with UACC-62 was > 100 µM (inactive) in each case.
As to `Cc1cc2nc(CC(C(F)(F)F)C(F)(F)F)oc2cc1C`, the GI50 is 0.474 µM (active) in the assay on 786-0; 7.26 µM (inactive) in the assay with ACHN; 2.24 µM (inactive) in the assay on EKVX; 3.56 µM (inactive) with HCC 2998; 3.48 µM (inactive) in the assay on HOP-62; 0.973 µM (active) with HT-29. For the same molecule, the GI50 in the assay with K562 was 0.0931 µM (active); in the assay with MCF7, 2.54 µM (inactive); with NCI/ADR-RES it was 1.71 µM (inactive); in the assay on OVCAR-3, 2.65 µM (inactive); in the assay with OVCAR-4, 2.19 µM (inactive); in the assay on OVCAR-8, 1.12 µM (active). Moreover, the GI50 was 1.96 µM (inactive) in the assay with PC-3; 0.0931 µM (active) with RPMI-8226; 2.51 µM (inactive) in the assay with RXF 393; 2.73 µM (inactive) in the assay with SF-539; 2.81 µM (inactive) in the assay on SK-MEL-2; 1.42 µM (inactive) with UACC-62.
